As usually defined, the DC50 is the concentration at which degradation of the target reaches its halfway point. One may read the AUC(0-t) as the area under the concentration-time curve up to a stated or last time point. Low values mean less exposure, high ones more exposure.

Some results are limits rather than exact numbers.

In US20250333410A1, “COMPOUND FOR INHIBITING OR DEGRADING BCL6 AND USE THEREOF IN PHARMACEUTICS” (XIZANG HAISCO PHARMACEUTICAL CO., LTD., priority 2022, published 2025) one finds DC50, AUC(0-t) and F data, which are given here for 37 compounds.

One series deals with Bcl6 (Homo sapiens (Human), UniProt P41182). Description: Bcl-6 protein degradation experiment in Farage cells. The class given is cell-based. To be noted: 24 hours. On the procedure:
2. Bcl-6 Protein Degradation Experiment in Farage Cells
Farage cells purchased from ATCC were placed in an RPMI-1640 complete medium (containing 10% fetal bovine serum, 100 U/mL penicillin and 100 μg/mL streptomycin) and cultured at 37° C. and 5% CO2. The cells in the logarithmic growth phase were collected, and the cell suspension was adjusted to an appropriate density with the culture medium and added to a 6-well cell culture plate at a volume of 1 mL/well. The compounds to be tested were prepared to 2-fold the final concentration, 1 mL of the compounds at different concentrations were added to administration wells, a medium containing 0.2% DMSO was added to control wells, and the plate was incubated at 37° C. for 24 hours. The cells were collected into a 1.5 mL centrifuge tube, 25 μL of RIPA lysis buffer (containing 1× protease inhibitor cocktail) was added, and the cells were lysed on ice for 15 minutes and centrifuged at 12000 rpm/min at 4° C. for 10 minutes. The supernatant was collected and the protein content was determined using the BCA method. The protein sample to be tested was diluted to 0.8 mg/mL, Bcl6 was detected using a fully automated protein expression quantitative analyzer (ProteinSimple), and the internal reference protein was R-actin (both antibodies were from CST). The software (Compass for SW) of the fully automated protein expression quantitative analyzer was used to process the raw data and calculate the peak area and the Bcl6 expression rate relative to the control group. DC50 values were calculated using a four-parameter non-linear fitting model in Graphpad 8.3.0 software.

Series [1] can be described thus: Pharmacokinetic test in mice. The conditions noted are these: i.g. 5 mg/kg; for AUC(0-t): male, ICR, mouse, po, mice plasma. In kind it is in vivo, ICR mice. As for the experimental part:
3. Pharmacokinetic Test in Mice
1.1 Experimental animal: male ICR mice, 25-30 g, 6 mice/compound, purchased from Chengdu Ddossy Experimental Animals Co., Ltd.
1.2 Experimental design: on the day of the experiment, the ICR mice were randomly grouped according to their body weights. The animals were fasted but with water available for 12 to 14 h one day before the administration, and were fed 4 h after the administration.

`C#CCn1c(=O)c(OCC(=O)NC)cc2cc(Nc3nc(N4CCN(CC5CCN(c6ccc(C7CCC(=O)NC7=O)c(F)c6)CC5)CC4)ncc3Cl)ccc21` (stereo not drawn) [Trifluoroacetate of compound 52] came in with a DC50 at Bcl6 below 0.01 µM.
In the case of `CNC(=O)COc1cc2cc(Nc3nc(N4CCC(CN5CCN(c6ccc(C7CCC(=O)NC7=O)cc6)CC5)CC4)ncc3Cl)ccc2n(C)c1=O` (stereo not drawn) [Trifluoroacetate of compound 14], the DC50 at Bcl6 was below 0.01 µM. This compound returned an area under the curve AUC(0-t) in series [1] above 1 µg·h/mL.
With `CNC(=O)COc1cc2cc(Nc3nc(N4CCN(CC5CCN(c6ccc(C7CCC(=O)NC7=O)cc6)CC5)CC4)ncc3Cl)ccc2n(C(C)C)c1=O` (stereo not drawn) [Trifluoroacetate of compound 42], the DC50 at Bcl6 was below 0.01 µM.
In the case of `CNC(=O)COc1cc2cc(Nc3nc(N4CCN(CC5CCN(c6ccc(C7CCC(=O)NC7=O)c(F)c6)CC5)CC4)ncc3Cl)ccc2n(C2CC2)c1=O` (stereo not drawn) [Trifluoroacetate of compound 53], at Bcl6, the 50% degradation concentration (DC50) was below 0.01 µM.
As to `[2H]C([2H])([2H])NC(=O)COc1cc2cc(Nc3nc(N4CCC(O[C@H]5C[C@H](N6CCN7c8cc(F)c(C9CCC(=O)NC9=O)cc8CC[C@@H]7C6)C5)CC4)ncc3Cl)ccc2n(C)c1=O` (stereo partly drawn) [Trifluoroacetate of compound 92], the DC50 at Bcl6 was below 0.01 µM.
`CNC(=O)COc1cc2cc(Nc3nc(N4CCC(O[C@H]5C[C@H](N6CCN(c7ccc(C8CCC(=O)NC8=O)c(F)c7)CC6)C5)CC4)ncc3Cl)ccc2n(C(C)C)c1=O` (stereo partly drawn) [Compound 96]: the 50% degradation concentration (DC50) at Bcl6 was below 0.01 µM.
`CNC(=O)COc1cc2cc(Nc3nc(N4CCC(O[C@H]5C[C@H](N6CCN7c8cc(F)c(C9CCC(=O)NC9=O)cc8CC[C@@H]7C6)C5)CC4)ncc3Cl)ccc2n(C(C)C)c1=O` (stereo partly drawn) [Trifluoroacetate of compound 70]: the half-maximal degradation concentration (DC50) on Bcl6 is below 0.01 µM.
On to `CC(=O)COc1cc2cc(Nc3nc(N4CCN(CC5CCN(c6cc(F)c(C7CCC(=O)NC7=O)c(F)c6)CC5)CC4)ncc3Cl)ccc2n(C)c1=O` (stereo not drawn) [Compound 22], for which the DC50 at Bcl6 was below 0.01 µM.
At Bcl6, `CC(=O)COc1cc2cc(Nc3nc(N4CCC(N5CCN(c6ccc(NC7CCC(=O)NC7=O)cc6F)CC5)C(F)(F)C4)ncc3Cl)ccc2n(C)c1=O` (stereo not drawn) [Trifluoroacetate of compound 5] showed a 50% degradation concentration (DC50) below 0.01 µM.
At Bcl6, `C#CCn1c(=O)c(OCC(=O)NC)cc2cc(Nc3nc(N4CCC(CN5CCN6c7ccc(C8CCC(=O)NC8=O)cc7CCC6C5)CC4)ncc3Cl)ccc21` (stereo not drawn) [Compound 50] displayed a DC50 below 0.01 µM.
Still for that read-out and setting: then `CNC(=O)COc1cc2cc(Nc3nc(N4CCC(O[C@H]5C[C@H](N6CCN(c7ccc(C8CCC(=O)NC8=O)cc7)CC6)C5)CC4)ncc3Cl)ccc2n(C(C)C)c1=O` (stereo partly drawn) [Compound 95], with below 0.01 µM; and `CCn1c(=O)c(OCC(=O)NC)cc2cc(Nc3nc(N4CCC(O[C@H]5C[C@H](N6CCN7c8cc(F)c(C9CCC(=O)NC9=O)cc8CC[C@H]7C6)C5)CC4)ncc3Cl)ccc21` (stereo partly drawn) [Trifluoroacetate of compound 61], with below 0.01 µM; and `CNC(=O)COc1cc2cc(Nc3nc(N4CCC(N(C)C5CCN(c6cccc7c6n(C)c(=O)n7C6CCC(=O)NC6=O)CC5)CC4)ncc3Cl)ccc2n(C)c1=O` (stereo not drawn) [Trifluoroacetate of compound 11], with below 0.01 µM.
For `CC(=O)COc1cc2cc(Nc3nc(N4CCC(CN5CCN(c6cccc7c6n(C)c(=O)n7C6CCC(=O)NC6=O)CC5)CC4)ncc3Cl)ccc2n(C)c1=O` (stereo not drawn) [Compound 10], on Bcl6, the DC50 was below 0.01 µM.
At Bcl6, `CNC(=O)COc1cc2cc(Nc3nc(N4CCC(F)(CN5CCN6c7cc(F)c(C8CCC(=O)NC8=O)cc7CC[C@@H]6C5)CC4)ncc3Cl)ccc2n(C(C)C)c1=O` (stereo partly drawn) [Trifluoroacetate of compound 98] had a DC50 below 0.01 µM.
Same read-out and setting: the figure for `CNC(=O)COc1cc2cc(Nc3nc(N4CCC(N5CCN(c6ccc(NC7CCC(=O)NC7=O)cc6F)CC5)C(F)(F)C4)ncc3Cl)ccc2n(C)c1=O` (stereo not drawn) [Trifluoroacetate of compound 7] is below 0.01 µM; for `CNC(=O)COc1cc2cc(Nc3nc(N4CCC(CN5CCN6c7ccc(C8CCC(=O)NC8=O)cc7CCC6C5)CC4)ncc3Cl)ccc2n(C2CC2)c1=O` (stereo not drawn) [Compound 51] it is below 0.01 µM; for `CNC(=O)COc1cc2cc(Nc3nc(N4CCN(c5ccc(C6CCC(=O)NC6=O)cc5)CC4)ncc3Cl)ccc2n(C)c1=O` (stereo not drawn) [Trifluoroacetate of compound 20] it is below 0.01 µM.
Regarding `[2H]C([2H])([2H])NC(=O)COc1cc2cc(Nc3nc(N4CCC(CN5CCN6c7cc(F)c(C8CCC(=O)NC8=O)cc7CC[C@H]6C5)CC4)ncc3Cl)ccc2n(C(C)C)c1=O` (stereo partly drawn) [Trifluoroacetate of compound 85], at Bcl6, the half-maximal degradation concentration (DC50) was below 0.01 µM.
Regarding `CCn1c(=O)c(OCC(=O)NC)cc2cc(Nc3nc(N4CCN(CC5CCN(c6ccc(C7CCC(=O)NC7=O)c(F)c6)CC5)CC4)ncc3Cl)ccc21` (stereo not drawn) [Trifluoroacetate of compound 68], the DC50 on Bcl6 is below 0.01 µM.
`[2H]C([2H])([2H])NC(=O)COc1cc2cc(Nc3nc(N4CCC(O[C@H]5C[C@H](N6CCN7c8cc(F)c(C9CCC(=O)NC9=O)cc8CC[C@@H]7C6)C5)CC4)ncc3Cl)ccc2n(C([2H])([2H])[2H])c1=O` (stereo partly drawn) [Trifluoroacetate of compound 91] returned a DC50 at Bcl6 below 0.01 µM.
`CNC(=O)COc1cc2cc(Nc3nc(N4CCN(CC5CCN(c6cccc(C7CCC(=O)NC7=O)c6)CC5)CC4)ncc3Cl)ccc2n(C)c1=O` (stereo not drawn) [Trifluoroacetate of compound 55]: on Bcl6, the DC50 is below 0.01 µM.
Same read-out and setting: then `CNC(=O)COc1cc2cc(Nc3nc(N4CCN(CC5CCN(c6ccc(C7CCC(=O)NC7=O)cc6F)CC5)CC4)ncc3Cl)ccc2n(C)c1=O` (stereo not drawn) [Trifluoroacetate of compound 41], with below 0.01 µM; and `[2H]C([2H])([2H])NC(=O)COc1cc2cc(Nc3nc(N4CCN(CC5CCN(c6ccc(C7CCC(=O)NC7=O)cc6)CC5)CC4)ncc3Cl)ccc2n(C)c1=O` (stereo not drawn) [Compound 47], with below 0.01 µM; and `CC(=O)COc1cc2cc(Nc3nc(N4CCN(c5ccc(C6CCC(=O)NC6=O)cc5)CC4)ncc3Cl)ccc2n(C)c1=O` (stereo not drawn) [Trifluoroacetate of compound 17], with below 0.01 µM.
Turning to `[2H]C([2H])([2H])NC(=O)COc1cc2cc(Nc3nc(N4CCC(O[C@H]5C[C@H](N6CCN7c8cc(F)c(C9CCC(=O)NC9=O)cc8CC[C@@H]7C6)C5)CC4)ncc3Cl)ccc2n(C(C)C)c1=O` (stereo partly drawn) [Trifluoroacetate of compound 93], the DC50 at Bcl6 was below 0.01 µM.
On the same count and under the same terms, the figure for `CNC(=O)COc1cc2cc(Nc3nc(N4CCN(CC5CN(c6ccc(C7CCC(=O)NC7=O)cc6F)C5)CC4)ncc3Cl)ccc2n(C)c1=O` (stereo not drawn) [Trifluoroacetate of compound 40] is below 0.01 µM; for `[2H]C([2H])([2H])NC(=O)COc1cc2cc(Nc3nc(N4CCC(O[C@H]5C[C@H](N6CCN7c8cc(F)c(C9CCC(=O)NC9=O)cc8CC[C@H]7C6)C5)CC4)ncc3Cl)ccc2n(C(C)C)c1=O` (stereo partly drawn) [Trifluoroacetate of compound 84] it is below 0.01 µM; for `CNC(=O)COc1cc2cc(Nc3nc(N4CC[C@H](O[C@H]5C[C@H](N6CCN7c8cc(F)c(C9CCC(=O)NC9=O)cc8CC[C@H]7C6)C5)[C@@H](F)C4)ncc3Cl)ccc2n(C(C)C)c1=O` (stereo partly drawn) [Trifluoroacetate of compound 109] it is below 0.01 µM.
On the same count and under the same terms, then `CNC(=O)COc1cc2cc(Nc3nc(N4CCN(CC5CCN(c6ccc(C7CCC(=O)NC7=O)cn6)CC5)CC4)ncc3Cl)ccc2n(C)c1=O` (stereo not drawn) [Compound 39], with below 0.01 µM.
For `CNC(=O)COc1cc2cc(Nc3nc(N4CCN(CC5CCN(Cc6cccc7c6n(C)c(=O)n7C6CCC(=O)NC6=O)CC5)CC4)ncc3Cl)ccc2n(C)c1=O` (stereo not drawn) [Compound 12], the DC50 on Bcl6 is below 0.01 µM.
In series [1], `CNC(=O)COc1cc2cc(Nc3nc(N4CCN(CC5CCN(c6cccc7c6C(=O)N(C6CCC(=O)NC6=O)C7=O)CC5)CC4)ncc3Cl)ccc2n(C)c1=O` (stereo not drawn) [Control compound 1, reference compound] returned an exposure AUC(0-t) below 0.1 µg·h/mL. In series [1] (mice), the F is below 5%.
As for `CNC(=O)COc1cc2cc(Nc3nc(N4CCC(CN5CCN6c7ccc(C8CCC(=O)NC8=O)cc7CCC6C5)CC4)ncc3Cl)ccc2n(C(C)C)c1=O` (stereo not drawn) [Trifluoroacetate of compound 54], the DC50 at Bcl6 is below 0.01 µM.
In turn, `[2H]C([2H])([2H])n1c(=O)c(OCC(=O)NC)cc2cc(Nc3nc(N4CCC(O[C@H]5C[C@H](N6CCN7c8cc(F)c(C9CCC(=O)NC9=O)cc8CC[C@@H]7C6)C5)CC4)ncc3Cl)ccc21` (stereo partly drawn) [Trifluoroacetate of compound 90] came in with a DC50 on Bcl6 below 0.01 µM.
Regarding `CNC(=O)COc1cc2cc(Nc3nc(N4CCC(CN5CCN(c6cccc7c6n(C)c(=O)n7C6CCC(=O)NC6=O)CC5)CC4)ncc3Cl)ccc2n(C)c1=O` (stereo not drawn) [Compound 9], the DC50 at Bcl6 was below 0.01 µM.
On the same count and under the same terms, then `CNC(=O)COc1cc2cc(Nc3nc(N4CCC(F)(CN5CCN6c7cc(F)c(C8CCC(=O)NC8=O)cc7CC[C@H]6C5)CC4)ncc3Cl)ccc2n(C(C)C)c1=O` (stereo partly drawn) [Trifluoroacetate of compound 94], with below 0.01 µM; and `CCn1c(=O)c(OCC(=O)NC)cc2cc(Nc3nc(N4CCN(CC5CCN(c6ccc(C7CCC(=O)NC7=O)cc6)CC5)CC4)ncc3Cl)ccc21` (stereo not drawn) [Trifluoroacetate of compound 69], with below 0.01 µM.
